Source: PubChem BioAssay AID248 (DTP/NCI, 2004)
Where “and” joins values, the source holds several entries; their conditions need not be identical. Identical values can stand only once. Inconclusive results and toxic doses are left out. No stated cut-off is given here; in the data, active means T/C of 150% or more; inactive means T/C below 125%.

Tested on: L1210 leukemia ip in BDF1 mice, survival T/C
Assay: NCI In Vivo Anticancer Drug Screen. Data for tumor model L1210 Leukemia (intraperitoneal) in B6D2F1 (BDF1) mice
Settings: endpoint: mean survival time, higher = longer survival
Procedure, shortened: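 In this screen, tumor-bearing mice given compound are compared to those given vehicle, and their survival values are reported as a treated-to-control quotient.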

[1] = dose: 100.0 mg/kg/injection, schedule: Q04DX002 (ip), vehicle: saline with Tween-80
[2] = dose: 200.0 mg/kg/injection, schedule: Q04DX002 (ip), vehicle: saline with Tween-80
[3] = dose: 100.0 mg/kg/injection, schedule: Q04DX003 (ip), vehicle: Klucel (hydroxypropylcellulose) (HPC)
[4] = dose: 400.0 mg/kg/injection, schedule: Q04DX003 (ip), vehicle: Klucel (hydroxypropylcellulose) (HPC)
[5] = dose: 200.0 mg/kg/injection, schedule: Q04DX003 (ip), vehicle: saline with Tween-80
[6] = dose: 100.0 mg/kg/injection, schedule: Q01DX001 (ip), vehicle: carboxymethylcellulose (CMC)
[7] = dose: 200.0 mg/kg/injection, schedule: Q01DX001 (ip), vehicle: carboxymethylcellulose (CMC)
[8] = dose: 400.0 mg/kg/injection, schedule: Q01DX001 (ip), vehicle: carboxymethylcellulose (CMC)
[9] = dose: 100.0 mg/kg/injection, schedule: Q04DX003 (ip), vehicle: saline with Tween-80
[10] = dose: 50.0 mg/kg/injection, schedule: Q01DX001 (ip), vehicle: carboxymethylcellulose (CMC)
[11] = dose: 50.0 mg/kg/injection, schedule: Q01DX009 (ip), vehicle: saline
[12] = dose: 100.0 mg/kg/injection, schedule: Q01DX009 (ip), vehicle: saline
[13] = dose: 100.0 mg/kg/injection, schedule: Q04DX003 (ip), vehicle: saline
[14] = dose: 200.0 mg/kg/injection, schedule: Q04DX003 (ip), vehicle: saline
[15] = dose: 200.0 mg/kg/injection, schedule: Q01DX009 (ip), vehicle: saline
[16] = dose: 400.0 mg/kg/injection, schedule: Q01DX009 (ip), vehicle: saline
[17] = dose: 400.0 mg/kg/injection, schedule: Q04DX003 (ip), vehicle: saline
[18] = dose: 25.0 mg/kg/injection, schedule: Q01DX009 (ip), vehicle: Klucel (hydroxypropylcellulose) (HPC)
[19] = dose: 50.0 mg/kg/injection, schedule: Q01DX009 (ip), vehicle: Klucel (hydroxypropylcellulose) (HPC)
[20] = dose: 100.0 mg/kg/injection, schedule: Q01DX009 (ip), vehicle: Klucel (hydroxypropylcellulose) (HPC)
[21] = dose: 100.0 mg/kg/injection, schedule: Q04DX002 (ip), vehicle: saline
[22] = dose: 200.0 mg/kg/injection, schedule: Q04DX002 (ip), vehicle: saline

Measured: T/C

CCCCC(CCCC)NCCO
inactive: dose: 75.0 mg/kg/injection, schedule: Q01DX001 (ip), vehicle: carboxymethylcellulose (CMC) 98 % of control | dose: 150.0 mg/kg/injection, schedule: Q01DX001 (ip), vehicle: carboxymethylcellulose (CMC) 96 % of control

C[CH2][Ge]([CH2]C)([CH2]C)[CH2]CCO
inactive: dose: 5.0 mg/kg/injection, schedule: Q04DX002 (ip), vehicle: saline with Tween-80 103 % of control | dose: 10.0 mg/kg/injection, schedule: Q04DX002 (ip), vehicle: saline with Tween-80 97 % of control | dose: 20.0 mg/kg/injection, schedule: Q04DX002 (ip), vehicle: saline with Tween-80 95 % of control | [1] 93 % of control | [2] 93 % of control

CCOC(=O)CCCCCCCCC(=O)Nc1ccc([N+](=O)[O-])cc1O
inactive: [3] 103 % of control | dose: 200.0 mg/kg/injection, schedule: Q04DX003 (ip), vehicle: Klucel (hydroxypropylcellulose) (HPC) 100 % of control | [4] 101 % of control

COc1ccc2c(c1)CNC1c3cc(OC)c(O)cc3CC21 (stereo unspecified)
inactive: [5] 88 % of control

CN1CN(c2ccccc2)C2(CCN(Cc3nc4ccccc4[nH]3)CC2)C1=O
inactive: dose: 75.0 mg/kg/injection, schedule: Q04DX003 (ip), vehicle: Klucel (hydroxypropylcellulose) (HPC) 100 % of control | dose: 150.0 mg/kg/injection, schedule: Q04DX003 (ip), vehicle: Klucel (hydroxypropylcellulose) (HPC) 107 % of control | dose: 300.0 mg/kg/injection, schedule: Q04DX003 (ip), vehicle: Klucel (hydroxypropylcellulose) (HPC) 105 % of control

Cc1ccc(-c2ccno2)cc1
inactive: [6] 96 % of control | [7] 92 % of control | [8] 97 % of control

CCC(CC)OC(=O)Nc1cccc(OC(=O)NC)c1
inactive: [9] 104 % of control | [5] 95 % of control

Cc1[nH]c(=S)sc1C
inactive: [10] 100 % of control | [11] 97 % of control | dose: 50.0 mg/kg/injection, schedule: Q04DX003 (ip), vehicle: saline 92 % of control | [6] 88 % of control | [12] 97 % of control | [13] 101 % of control | [14] 88 % of control

Clc1ccccc1C[P+](c1ccccc1)(c1ccccc1)c1ccccc1
inactive: dose: 12.5 mg/kg/injection, schedule: Q01DX001 (ip), vehicle: saline 92 % of control | dose: 25.0 mg/kg/injection, schedule: Q01DX001 (ip), vehicle: saline 106 % of control | dose: 50.0 mg/kg/injection, schedule: Q01DX001 (ip), vehicle: saline 100 % of control

COc1ccc(C(C#N)CC(=O)c2ccc3c(c2)OCO3)cc1OC (stereo unspecified)
inactive: [12] 104 % of control | [13] 98 % of control | [15] 104 % of control | [14] 104 % of control | [16] 97 % of control | [17] 98 % of control

CC1(C2C3OC(=O)C2C2(O)CC4OC45C(=O)OC3C25C)CO1 (stereo unspecified)
inactive: [18] 92 % of control | [19] 104 % of control | [20] 95 % of control

COc1cc(/C=C/C(N)=O)cc(OC)c1OC
inactive: [18] 104 % of control | [19] 114 % of control | [20] 101 % of control | dose: 200.0 mg/kg/injection, schedule: Q01DX009 (ip), vehicle: Klucel (hydroxypropylcellulose) (HPC) 104 % of control | dose: 400.0 mg/kg/injection, schedule: Q01DX009 (ip), vehicle: Klucel (hydroxypropylcellulose) (HPC) 102 % of control

COC(=O)C(=[N+]=[N-])C(F)(F)F
inactive: [11] 95 % of control | [12] 102 % of control | [15] 102 % of control

CCOC(=O)c1ccc(NS(=O)(=O)c2ccc(Cl)cc2[N+](=O)[O-])cc1
inactive: [6] 99 % of control | dose: 100.0 mg/kg/injection, schedule: Q01DX009 (ip), vehicle: carboxymethylcellulose (CMC) 112 % of control and 88 % of control | dose: 100.0 mg/kg/injection, schedule: Q04DX002 (ip), vehicle: carboxymethylcellulose (CMC) 96 % of control and 90 % of control | dose: 100.0 mg/kg/injection, schedule: Q04DX003 (ip), vehicle: carboxymethylcellulose (CMC) 105 % of control | [7] 101 % of control | dose: 200.0 mg/kg/injection, schedule: Q01DX009 (ip), vehicle: carboxymethylcellulose (CMC) 88 % of control and 89 % of control | dose: 200.0 mg/kg/injection, schedule: Q04DX002 (ip), vehicle: carboxymethylcellulose (CMC) 93 % of control and 91 % of control | dose: 200.0 mg/kg/injection, schedule: Q04DX003 (ip), vehicle: carboxymethylcellulose (CMC) 102 % of control | [8] 103 % of control | dose: 400.0 mg/kg/injection, schedule: Q01DX009 (ip), vehicle: carboxymethylcellulose (CMC) 88 % of control and 91 % of control | dose: 400.0 mg/kg/injection, schedule: Q04DX002 (ip), vehicle: carboxymethylcellulose (CMC) 93 % of control | dose: 400.0 mg/kg/injection, schedule: Q04DX003 (ip), vehicle: carboxymethylcellulose (CMC) 93 % of control

CC(=O)C(C(C)=O)C(C)=O.CC(=O)C(C(C)=O)C(C)=O.CC(=O)C(C(C)=O)C(C)=O.[Cr]
inactive: [10] 100 % of control | [6] 94 % of control | [7] 105 % of control | [8] 100 % of control

N/C=N/O
inactive: dose: 12.5 mg/kg/injection, schedule: Q01DX009 (ip), vehicle: saline 105 % of control | dose: 25.0 mg/kg/injection, schedule: Q01DX009 (ip), vehicle: saline 105 % of control | [11] 111 % of control | [12] 111 % of control | [13] 101 % of control | [15] 121 % of control | [14] 111 % of control | [17] 97 % of control
active: [16] 158 % of control

O=C(O)c1c(F)cccc1F
inactive: dose: 25.0 mg/kg/injection, schedule: Q04DX003 (ip), vehicle: saline with Tween-80 91 % of control | dose: 50.0 mg/kg/injection, schedule: Q04DX003 (ip), vehicle: saline with Tween-80 91 % of control | [3] 95 % of control | [9] 88 % of control | [4] 88 % of control

O=S1(=O)CN2C=CC=CC2=N1
inactive: [1] 113 % of control | [2] 91 % of control | dose: 400.0 mg/kg/injection, schedule: Q04DX002 (ip), vehicle: saline with Tween-80 109 % of control

CC1CCCN(C(=O)Nc2ccccc2)C1 (stereo unspecified)
inactive: [21] 104 % of control | [22] 115 % of control | dose: 400.0 mg/kg/injection, schedule: Q04DX002 (ip), vehicle: saline 96 % of control

Nc1ccc2cc(S(=O)(=O)O)cc(S(=O)(=O)O)c2c1
inactive: [21] 95 % of control | [22] 102 % of control

CN(C)/C=C/c1nnc([N+](=O)[O-])s1
inactive: dose: 62.0 mg/kg/injection, schedule: Q04DX003 (ip), vehicle: Klucel (hydroxypropylcellulose) (HPC) 100 % of control | dose: 123.0 mg/kg/injection, schedule: Q04DX003 (ip), vehicle: Klucel (hydroxypropylcellulose) (HPC) 98 % of control | dose: 256.0 mg/kg/injection, schedule: Q04DX003 (ip), vehicle: Klucel (hydroxypropylcellulose) (HPC) 98 % of control | dose: 512.0 mg/kg/injection, schedule: Q04DX003 (ip), vehicle: Klucel (hydroxypropylcellulose) (HPC) 100 % of control

CC(=O)OCC1OC(N2C(=O)/C(=C/c3ccc4c(c3)OCO4)SC2=S)C(OC(C)=O)C(OC(C)=O)C1OC(C)=O (stereo unspecified)
inactive: dose: 12.5 mg/kg/injection, schedule: Q01DX005 (ip), vehicle: other 102 % of control | dose: 25.0 mg/kg/injection, schedule: Q01DX005 (ip), vehicle: other 100 % of control | dose: 50.0 mg/kg/injection, schedule: Q01DX005 (ip), vehicle: other 96 % of control | dose: 100.0 mg/kg/injection, schedule: Q01DX005 (ip), vehicle: other 94 % of control | dose: 200.0 mg/kg/injection, schedule: Q01DX005 (ip), vehicle: other 94 % of control

CN(C)c1ccc2c(c1)N=[N+]([O-])c1cc(N(C)C)ccc1C2
inactive: dose: 100.0 mg/kg/injection, schedule: Q01DX001 (ip), vehicle: Klucel (hydroxypropylcellulose) (HPC) 97 % of control | dose: 200.0 mg/kg/injection, schedule: Q01DX001 (ip), vehicle: Klucel (hydroxypropylcellulose) (HPC) 97 % of control | dose: 400.0 mg/kg/injection, schedule: Q01DX001 (ip), vehicle: Klucel (hydroxypropylcellulose) (HPC) 89 % of control
